Assay results: patent publication US20130303490A1, “Inhibitors of HIV Infections and uses thereof” (Centre National De La Recherche Scientifique-CNRS, priority 2010, published 2013)
Entries after “also recorded” stand apart in the source; their conditions may differ. Where two headings read alike, the source gives them in different places.

Key:
[1] = test system: HIV-1 strain JR-CSF (R5 strain); assay: Humanized SCID mice (hu-PBL-SCID) infected with HIV-1, viral load by qPCR; format: in vivo, mouse (SCID, grafted with human PBMCs); details: FTY720 0.3 mg per kg per day by gavage from D-1, viral load D6, 9, 12; p=0.023 (FIG. 6)
Experimental: SCID mice have the cb17/Icr-Prkdc^scid/Crl genotype. These immunodepressed mice are housed in an A3/L3 animal house in cages with a filter lid, in a ventilated cage rack. After one week of acclimatization, the animals are reconstituted by intraperitoneal injection of 30×10^6 PBMCs obtained by density centrifugation of the leukocytes of an uncertified cytapheresis annulus from a healthy volunteer donor. The reconstitution is evaluated on the 13th day by assaying the human immunoglobulins (Igs) present in the serum of the mice by means of an Elisa assay using the anti-human whole Ig-PO antibody (MP Biomedical, cat n° 55230). The mice whose total Ig concentration is greater than 100 μg/ml are kept for the experiment, and are infected 14 days after the reconstitution with the HIV-1 strain JR-CSF (R5 strain) at 1000 TCID50 in 100 μl. Daily gavage with 100 μl of FTY720 (Cayman, sold by Interchim ref. BM8045) dissolved at 60 μg/ml in distilled water is begun one day before the infection and continued for 12 days. The untreated mice are given the same volume of distilled water by gavage. […] The viremies are evaluated by quantification of the viral ARN in the plasma of the mice by qPCR with the AmpliPrep/COBAS TaqMan HIV-1 test (Roche Diagnostics, ref. 05212294190). […]

[2] = test system: Ad8-luc virus in HOS CCR5 lacZ line; assay: Infection of HOS CCR5 lacZ cells (not expressing S1PR1) with Ad8-luc virus (luciferase activity); format: cell-based, HIV-1
[3] = test system: Ad8-luc virus in peripheral blood mononuclear cells (PBMCs); assay: Infection of PBMCs with Ad8-luc virus (luciferase activity); format: cell-based, HIV-1
Experimental: The HOS-CD4 line (AIDS Reagent Program, Rockville, Md.) and the HEK-293T line (simian virus 40 T antigen-transformed human embryonic kidney 293T, Genethon) are cultured in DMEM medium supplemented with 10% of FCS (fetal calf serum), 10 mM of glutamax-1, 100 U/ml of penicillin and 100 μg/ml of streptomycin. The HEK-293T CD4+ CCR5+ line (gift from Martine Biard-Piechaczyk, Institute of Biology, Montpellier, France) was obtained by transfection of CD4 and CCR5 genes using the HEK-293T line. The human PBMCs in culture are isolated from blood of healthy donors by density centrifugation on lymphocyte separation medium (Eurobio) and cultured in RPMI medium supplemented like the DMEM at 37° C., 5% CO2.

[4] = test system: Ad8-luc virion (nonreplicative R5-pseudotyped HIV-1) in HEK-293T CD4+ CCR5+ cells; assay: Infection of S1PR1-transfected HEK-293T CD4+ CCR5+ cells with Ad8-luc virion (luciferase activity); format: cell-based
Experimental: In order to test the influence of the expression of S1PR1 on infection with HIV-1, 50 000 HEK-293T CD4+ CCR5+ cells were transiently transfected by lipofection, by incubating them for 24 hours with a mixture of 50 ng of CMV-S1PR1 plasmid, 20 ng of the pRL-TK-Renilla Luciferase plasmid (Promega) and 0.5 μl of lipofectamine (Lipofectamine™ 2000, Invitrogen) in 150 μl of DMEM medium, 10% FCS, in a 96-well plate, incubated beforehand with a solution of D-polylysine for 30 min. […] 24 h after the transfection, the wells are washed with DMEM (BioWhittaker), and then the cells are infected with 40 ng of the Ad8-luc virion in 180 μl of culture medium. […] 24 h after the infection, the cells are washed once with culture medium, and put back in culture with 200 μl of DMEM, 10% FCS. 40 h to 48 h after the infection, the cells are washed once with PBS, and lysed with 50 μl of buffer, and then the Firefly and Renilla luciferase activities are measured sequentially in a luminometer using the Dual-Luciferase® Reporter Assay system (Promega, cat: E1910). The Renilla luciferase activity is used as a measure of the level of cell metabolism.

[5] = HOS CCR5 lacZ cells not expressing S1PR1, 33 μM preincubation for one hour (FIG. 3), p<0.01

Molecule: CCCCCCCCc1ccc(CCC(N)(CO)CO)cc1.Cl [FTY720, 2-amino-2-[2-(4-octylphenyl)ethyl]propane-1,3-diol]
- viremia / infection of the treated animals versus untreated group [1]: clear decrease in viremia; also recorded: significant decrease
- decrease of the HIV infection [2, 5]: approximately 50%

Molecule: CCCCCCCCCCCCC/C=C/[C@@H](O)[C@@H](N)COP(=O)(O)O [Sphingosine-1-phosphate, sphingosine-1-phosphate]
- decrease of the HIV infection [2, 5]: approximately 50%
- inhibition at 1 µM ([3]; Human immunodeficiency virus 1, PBMC, read-out: inhibition of the infection): ~60%

Molecule: CCCCCCCCc1ccc(CC[C@](N)(CO)COP(=O)(O)O)cc1 [FTY720-P]
- decrease of the HIV infection [2]: approximately 50%
- reduction of infection compared with the empty plasmid control ([4]; S1PR1-expressing HEK-293T CD4+ CCR5+ cells, FTY720-P 80 ng/ml for 30 min before addition of the virus, unstimulated S1PR1 alone gives 60%): 90%
- inhibition of the infection ([3]; PBMCs from a healthy donor, 1 μM preincubation, Ad8-luc for 72 h (FIG. 4)): approximately 60%

Molecule: FC(F)(F)c1cccc(-c2noc(-c3cc(-c4ccccc4)c(C(F)(F)F)s3)n2)c1 [SEW2871]
- decrease of the HIV infection [2, 5]: No significant difference; also recorded: does not significantly modify the infection

B1: MIP1-β: a CCR5 ligand known to inhibit HIV infection (R&D systems) (protein, UniProt P13236 24-92, looked up)
C-C motif chemokine 4: APMGSDPPTACCFSYTARKLPRNFVVDYYETSSLCSQPAVVFQTKRSKQVCADPSESWVQEYVYDLELN
- decrease in infection compared with that of FTY720-P ([4]; same conditions, anti-CCR5 antibody 10 μg/ml, MIP-1β 100 ng/ml, 30 min before infection): of the same level
